Source: patent US7504420B2, “Compounds which inhibit beta-secretase activity and methods of use” (CoMentis, Inc., priority 2005, dated 2009)
Counter-ions that a name gives are not always drawn. Like-named read-outs stand apart in the source and are kept apart here.

Tests used:
[1] = test system: Aβ production in Chinese hamster ovary cells that over-express human APP695 with the London and Swedish mutations; assay: Cellular Aβ IC50 determination (Aβ40 sandwich ELISA); settings: 24 h
memapsin 2 = memapsin 2 (Homo sapiens, UniProt P56817); assay: Inhibition of memapsin 2 catalytic activity (Ki); type: biochemical; settings: memapsin 2, pH 4, 37° C.; read-out: M2K
Method: Potency of compounds were determined by measurement of their inhibition of memapsin 2 catalytic activity toward a fluorescent substrate. […] Briefly, assays were performed at pH 4, 37° C., by pre-incubation of memapsin 2 enzyme with compound for 20 minutes. Activity measure was initiated by addition of a fluorogenic substrate FS-2 (Bachem Americas, Torrance, Calif.). Fluorescent signal increase over time was measured as a rate of hydrolysis of the peptide substrate. […]

[2] = Cricetulus griseus, CHO, read-out: Cell, Aβ40, CHO cells over-expressing human APP695 (London and Swedish mutations), 24 h
[3] = Cricetulus griseus, CHO, read-out: Cell

memapsin 2, sequence (P56817 46-501): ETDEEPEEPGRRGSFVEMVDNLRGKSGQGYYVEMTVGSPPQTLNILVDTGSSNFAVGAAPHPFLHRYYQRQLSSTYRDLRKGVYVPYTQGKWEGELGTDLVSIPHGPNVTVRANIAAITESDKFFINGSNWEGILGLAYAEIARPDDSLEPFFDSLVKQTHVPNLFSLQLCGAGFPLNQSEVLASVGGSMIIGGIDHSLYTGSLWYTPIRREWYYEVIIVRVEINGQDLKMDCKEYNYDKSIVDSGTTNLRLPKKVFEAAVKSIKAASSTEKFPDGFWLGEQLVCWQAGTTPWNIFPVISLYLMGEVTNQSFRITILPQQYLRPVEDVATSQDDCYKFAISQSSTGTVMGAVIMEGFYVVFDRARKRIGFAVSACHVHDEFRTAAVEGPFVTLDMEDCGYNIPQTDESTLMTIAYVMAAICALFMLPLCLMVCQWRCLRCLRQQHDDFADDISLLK

| SMILES | IC50 [1, 2] | Ki (memapsin 2) | further results |
| --- | --- | --- | --- |
| COc1cccc(CN(CC(O)C(Cc2ccccc2)NC(=O)c2cc(C(=O)NC(C)c3ccccc3)cc(N(C)S(C)(=O)=O)c2)C(=O)CCC(=O)OCC(O)C2OC(=O)C(O)=C2O)c1 (centres unmarked) [2-(3,4-dihydroxy-5-oxo-2,5-dihydrofuran-2-yl)-2-hydroxyethyl 4-((2-hydroxy-3-(3-(N-methylmethylsulfonamido)-5-(1-phenylethylcarbamoyl)benzamido)-4-phenylbutyl)(3-methoxybenzyl)amino)-4-oxobutanoate] | 1000 to 5000 nM | – | – |
| COc1cccc(CNCC(O)C(Cc2cc(F)cc(F)c2)NC(=O)c2cc(C(=O)NC(C)c3ccccc3)cc(N(C)S(C)(=O)=O)c2)c1 (centres unmarked) [N1-(1-(3,5-difluorophenyl)-3-hydroxy-4-(3-methoxybenzylamino)butan-2-yl)-5-(N-methylmethylsulfonamido)-N3-(1-phenylethyl)isophthalamide] | < 1000 nM | – | – |
| COc1cccc(CNCC(O)C(Cc2cc(F)cc(F)c2)NC(=O)c2cccc(C(=O)N(C)Cc3nc(C)cs3)c2)c1 (centres unmarked) [N1-(1-(3,5-difluorophenyl)-3-hydroxy-4-(3-methoxybenzylamino)butan-2-yl)-N3-methyl-N3-((4-methylthiazol-2-yl)methyl)isophthalamide] | < 1000 nM | < 300 nM | – |
| CC(NC(=O)c1cc(C(=O)NC(Cc2ccccc2)C(O)CNCc2cccc(OC(F)(F)F)c2)cc(N(C)S(C)(=O)=O)c1)c1ccccc1 (centres unmarked) [N1-(3-hydroxy-1-phenyl-4-(3-(trifluoromethoxy)benzylamino)butan-2-yl)-5-(N-methylmethylsulfonamido)-N3-(1-phenylethyl)isophthalamide] | < 1000 nM | < 300 nM | – |
| Cc1csc(CN(C)C(=O)c2cccc(C(=O)NC(Cc3ccccc3)C(O)CNCc3cccc(OC(F)(F)F)c3)c2)n1 (centres unmarked) [N1-(3-hydroxy-1-phenyl-4-(3-(trifluoromethoxy)benzylamino)butan-2-yl)-N3-methyl-N3-((4-methylthiazol-2-yl)methyl)isophthalamide] | < 1000 nM | < 300 nM | – |
| CC(NC(=O)c1cc(C(=O)NC(Cc2ccccc2)C(O)CNCc2nccn2COCC[Si](C)(C)C)cc(N(C)S(C)(=O)=O)c1)c1ccccc1 (centres unmarked) [N1-(3-hydroxy-1-phenyl-4-((1-((2-(trimethylsilyl)ethoxy)methyl)-1H-imidazol-2-yl)methylamino)butan-2-yl)-5-(N-methylmethylsulfonamido)-N3-(1-phenylethyl)isophthalamide] | – | 301 to 500 nM | IC50 [1, 3]: > 5000 nM |
| CC(NC(=O)c1cc(C(=O)NC(Cc2ccccc2)C(O)CNCc2cccn2COCC[Si](C)(C)C)cc(N(C)S(C)(=O)=O)c1)c1ccccc1 (centres unmarked) [N1-(3-hydroxy-1-phenyl-4-((1-((2-(trimethylsilyl)ethoxy)methyl)-1H-pyrrol-2-yl)methylamino)butan-2-yl)-5-(N-methylmethylsulfonamido)-N3-(1-phenylethyl)isophthalamide] | – | 301 to 500 nM | IC50 [1, 3]: < 1000 nM |
| COc1cccc(CNCC(O)C(Cc2ccccc2)NC(=O)c2cc(C(=O)NC(C)c3nc(C)cs3)cc(N(C)S(C)(=O)=O)c2)c1 (centres unmarked) [N1-(3-hydroxy-4-(3-methoxybenzylamino)-1-phenylbutan-2-yl)-5-(N-methylmethylsulfonamido)-N3-(1-(4-methylthiazol-2-yl)ethyl)isophthalamide] | < 1000 nM | – | – |
| COc1ccccc1CN1CCC(CNCC(O)C(Cc2ccccc2)NC(=O)c2cc(C(=O)NC(C)c3ccccc3)cc(N(C)S(C)(=O)=O)c2)CC1 (centres unmarked) [N1-(3-hydroxy-4-((1-(2-methoxybenzyl)piperidin-4-yl)methylamino)-1-phenylbutan-2-yl)-5-(N-methylmethylsulfonamido)-N3-(1-phenylethyl)isophthalamide dihydrochloride] | – | – | IC50 ([1]; read-out: Cell, Aβ40, CHO cells over-expressing human APP695 (London and Swedish mutations), dihydrochloride): > 5000 nM |
| COc1ccccc1CN1CCC(CNCC(O)C(Cc2ccccc2)NC(=O)c2cc(C(=O)NC(C)c3ccccc3)cc(N(C)S(C)(=O)=O)c2)CC1 (centres unmarked) [N1-(3-hydroxy-4-((1-(2-methoxybenzyl)piperidin-4-yl)methylamino)-1-phenylbutan-2-yl)-5-(N-methylmethylsulfonamido)-N3-(1-phenylethyl)isophthalamide] | – | – | IC50 ([1]; read-out: Cell, Aβ40, CHO cells over-expressing human APP695 (London and Swedish mutations)): 1000 to 5000 nM |
| CC(C)CN1CCC(CNCC(O)C(Cc2ccccc2)NC(=O)c2cc(C(=O)NC(C)c3ccccc3)cc(N(C)S(C)(=O)=O)c2)CC1 (centres unmarked) [N1-(3-hydroxy-4-((1-isobutylpiperidin-4-yl)methylamino)-1-phenylbutan-2-yl)-5-(N-methylmethylsulfonamido)-N3-(1-phenylethyl)isophthalamide dihydrochloride] | > 5000 nM | – | – |
| COc1ccnc(CNCC(O)C(Cc2ccccc2)NC(=O)c2cc(C(=O)NC(C)c3ccccc3)cc(N(C)S(C)(=O)=O)c2)c1 (centres unmarked) [N1-(3-hydroxy-4-((4-methoxypyridin-2-yl)methylamino)-1-phenylbutan-2-yl)-5-(N-methylmethylsulfonamido)-N3-(1-phenylethyl)isophthalamide] | < 1000 nM | – | – |
| CC(C)Cc1cncc(CNCC(O)C(Cc2ccccc2)NC(=O)c2cc(C(=O)NC(C)c3ccccc3)cc(N(C)S(C)(=O)=O)c2)c1 (centres unmarked) [N1-(3-hydroxy-4-((5-isobutylpyridin-3-yl)methylamino)-1-phenylbutan-2-yl)-5-(N-methylmethylsulfonamido)-N3-(1-phenylethyl)isophthalamide] | < 1000 nM | – | – |
| COc1cccc(CN(CC(O)C(Cc2ccccc2)NC(=O)c2cc(C(=O)NC(C)c3ccccc3)cc(N(C)S(C)(=O)=O)c2)C(=O)CCC(=O)NCCN2CCOCC2)c1 (centres unmarked) [N1-(3-hydroxy-4-(N-(3-methoxybenzyl)-4-(2-morpholinoethylamino)-4-oxobutanamido)-1-phenylbutan-2-yl)-5-(N-methylmethylsulfonamido)-N3-(1-phenylethyl)isophthalamide] | 1000 to 5000 nM | – | – |
| COc1cccc(CN(CC(O)C(Cc2ccccc2)NC(=O)c2cc(C(=O)NC(C)c3ccccc3)cc(N(C)S(C)(=O)=O)c2)C(=O)CCC(=O)NCc2cccnc2)c1 (centres unmarked) [N1-(3-hydroxy-4-(N-(3-methoxybenzyl)-4-oxo-4-(pyridin-3-ylmethylamino)butanamido)-1-phenylbutan-2-yl)-5-(N-methylmethylsulfonamido)-N3-(1-phenylethyl)isophthalamide] | > 5000 nM | – | – |
| COc1cccc(CN(CC(O)C(Cc2ccccc2)NC(=O)c2cc(C(=O)NC(C)c3ccccc3)cc(N(C)S(C)(=O)=O)c2)C(=O)CCCC(=O)NCCN2CCOCC2)c1 (centres unmarked) [N1-(3-hydroxy-4-(N-(3-methoxybenzyl)-5-(2-morpholinoethylamino)-5-oxopentanamido)-1-phenylbutan-2-yl)-5-(N-methylmethylsulfonamido)-N3-(1-phenylethyl)isophthalamide] | > 5000 nM | – | – |
| COc1cccc(CN(CC(O)C(Cc2ccccc2)NC(=O)c2cc(C(=O)NC(C)c3ccccc3)cc(N(C)S(C)(=O)=O)c2)C(=O)CCCC(=O)NN2CCN(C)CC2)c1 (centres unmarked) [N1-(3-hydroxy-4-(N-(3-methoxybenzyl)-5-(4-methylpiperazin-1-ylamino)-5-oxopentanamido)-1-phenylbutan-2-yl)-5-(N-methylmethylsulfonamido)-N3-(1-phenylethyl)isophthalamide] | > 5000 nM | – | – |
| COc1cccc(CN(CC(O)C(Cc2ccccc2)NC(=O)c2cc(C(=O)NC(C)c3ccccc3)cc(N(C)S(C)(=O)=O)c2)C(=O)CCCC(=O)NCc2cccnc2)c1 (centres unmarked) [N1-(3-hydroxy-4-(N-(3-methoxybenzyl)-5-oxo-5-(pyridin-3-ylmethylamino)pentanamido)-1-phenylbutan-2-yl)-5-(N-methylmethylsulfonamido)-N3-(1-phenylethyl)isophthalamide] | > 5000 nM | – | – |
| COc1cccc(CN(CC(O)C(Cc2ccccc2)NC(=O)c2cc(C(=O)NC(C)c3ccccc3)cc(N(C)S(C)(=O)=O)c2)C(=O)CN(C)C)c1 (centres unmarked) [N1-(4-(2-(dimethylamino)-N-(3-methoxybenzyl)acetamido)-3-hydroxy-1-phenylbutan-2-yl)-5-(N-methylmethylsulfonamido)-N3-(1-phenylethyl)isophthalamide] | 1000 to 5000 nM | – | – |
| Cc1csc(CN(C)C(=O)c2cccc(C(=O)NC(Cc3ccccc3)C(O)CNCc3ccccc3)c2)n1 (centres unmarked) [N1-(4-(benzylamino)-3-hydroxy-1-phenylbutan-2-yl)-N3-methyl-N3-((4-methylthiazol-2-yl)methyl)isophthalamide] | – | > 501 nM | – |
| COc1cccc(CNCC(O)C(Cc2ccccc2)NC(=O)c2cccc(C(=O)N(Cc3ccccc3)Cc3nc(C)cs3)c2)c1 (centres unmarked) [N1-benzyl-N3-(3-hydroxy-4-(3-methoxybenzylamino)-1-phenylbutan-2-yl)-N1-((4-methylthiazol-2-yl)methyl)isophthalamide] | – | < 300 nM | – |
| COc1cccc(CNCC(O)C(Cc2ccccc2)NC(=O)c2cccc(C(=O)N(Cc3nc(C)cs3)C3CCCCC3)c2)c1 (centres unmarked) [N1-cyclohexyl-N3-(3-hydroxy-4-(3-methoxybenzylamino)-1-phenylbutan-2-yl)-N1-((4-methylthiazol-2-yl)methyl)isophthalamide] | – | 301 to 500 nM | – |
| COc1cccc(CNCC(O)C(Cc2ccccc2)NC(=O)c2cccc(C(=O)N(Cc3nc(C)cs3)C3CCCC3)c2)c1 (centres unmarked) [N1-cyclopentyl-N3-(3-hydroxy-4-(3-methoxybenzylamino)-1-phenylbutan-2-yl)-N1-((4-methylthiazol-2-yl)methyl)isophthalamide] | – | < 300 nM | – |
| COC(=O)CCCC(=O)N(Cc1cccc(OC)c1)CC(O)C(Cc1ccccc1)NC(=O)c1cc(C(=O)NC(C)c2ccccc2)cc(N(C)S(C)(=O)=O)c1 (centres unmarked) [methyl 5-((2-hydroxy-3-(3-(N-methylmethylsulfonamido)-5-(1-phenylethylcarbamoyl)benzamido)-4-phenylbutyl)(3-methoxybenzyl)amino)-5-oxopentanoate] | < 1000 nM | – | – |
